Broadly, the LC50 is the concentration lethal to half of the exposed cells or organisms. For orientation: mortality means the percentage killed. Broadly, the IC50 is the concentration that gives 50% inhibition. A word on the inhibition in vivo: it is the change of the read-out against control, counted positive when it falls.

The subject of assay [1] is Mythimna separata. As to the kind of experiment: In vivo insecticidal activity against Mythimna separata (Oriental armyworm) assessed as mortality after 72 hr. In kind it is functional.
Assay [2] deals with Mythimna separata. As to the kind of experiment: In vivo insecticidal activity against Mythimna separata (Oriental armyworm) assessed as mortality at 500 ug/ml after 72 hr. In kind it is functional.
A further assay relates to Tetranychus cinnabarinus. The experiment in a line: In vivo insecticidal activity against Tetranychus cinnabarinus (carmine spider mite) assessed as mortality at 500 ug/ml after 72 hr. In kind it is functional.
The test system of another assay is Aphis medicaginis. As to the kind of experiment: In vivo insecticidal activity against Aphis medicaginis assessed as mortality at 1 g/l after 72 hr. In kind it is functional, organism-based.
The subject of the next assay is Nilaparvata lugens. The experiment in a line: In vivo insecticidal activity against fifth instar larval stage of Nilaparvata lugens (brown planthopper) in […] rice seedlings assessed as mortality at 1 g/l treated for 5 secs before larval infestation measured after 72 hr. In kind it is functional, organism-based.
Assay [3] concerns Podosphaera fuliginea. As to the kind of experiment: In vivo fungicidal activity against Podosphaera fuliginea infected cucumber plants assessed as inhibition of disease symptoms treated one day prior to fungal spore inoculation measured after one week. In kind it is functional, organism-based.
In assay [4] the test system is Pseudoperonospora cubensis. As to the kind of experiment: In vivo fungicidal activity against Pseudoperonospora cubensis infected in cucumber plants assessed as inhibition of disease symptoms treated one day prior to fungal spore inoculation measured after one week. In kind it is functional, organism-based.
For another assay, the system named is Rhizoctonia solani. The experiment in a line: In vivo fungicidal activity against Rhizoctonia solani infected in cucumber plants assessed as inhibition of disease symptoms at 200 ug/ml treated one day prior to fungal spore inoculation measured after one week. In kind it is functional, organism-based.
For a further assay, the system named is Botrytis cinerea. The experiment in a line: In vivo fungicidal activity against Botryotinia fuckeliana infected in cucumber plants assessed as inhibition of disease symptoms at 200 ug/ml treated one day prior to fungal spore inoculation measured after one week. In kind it is functional, organism-based.
For assay [5], the system named is Podosphaera fuliginea. As to the kind of experiment: In vivo fungicidal activity against Podosphaera fuliginea infected cucumber plants assessed as inhibition of disease symptoms at 200 ug/ml treated one day prior to fungal spore inoculation measured after one week. In kind it is functional.
Assay [6] deals with Pseudoperonospora cubensis. As to the kind of experiment: In vivo fungicidal activity against Pseudoperonospora cubensis infected in cucumber plants assessed as inhibition of disease symptoms at 200 ug/ml treated one day prior to fungal spore inoculation measured after one week. In kind it is functional.

In brackets after ≈: the same amount, converted by molar mass. Activity calls are given as the source filed them. No cut-off for these calls is given here. Where only a bound is given, the exact number is not on record here.

On to `CCOCn1c(-c2ccc(Cl)cc2)c(C#N)c(Br)c1C(F)(F)F` [CHLORFENAPYR], for which the LC50 in the assay on Mythimna separata [1] was 18.5 µg/mL (≈ 45.4 µM). For the same compound, the mortality at 500 µg/mL with Mythimna separata [2] stood at 100%.
On to `CO/C=C(/C(=O)OC)c1ccccc1COc1cccc(C2=NN(C(C)=O)C(c3ccc4c(c3)OCO4)C2)c1` (stereo not drawn), for which the mortality at 500 µg/mL in the assay on Tetranychus cinnabarinus was less than 60%; in the assay on Mythimna separata [2], 100%. Besides, in the assay on Mythimna separata [1], the LC50 is 26.6 µg/mL (≈ 50.3 µM). Moreover, the mortality entry in the assay on Aphis medicaginis and in the assay with Nilaparvata lugens was “inactive” in each case. In addition, the IC50 with Podosphaera fuliginea [3] was 57.6 µg/mL (≈ 109 µM); in [4], 26.6 µg/mL (≈ 50.3 µM). Also, the inhibition result with Rhizoctonia solani and in the assay with Botrytis cinerea was “inactive” throughout. Besides, the figures for the inhibition in vivo at 200 µg/mL (in the assay on Podosphaera fuliginea [5]; in assay [6]) were no less than 90% and 100%, respectively.
Consider `CCc1ccc(C2CC(c3ccccc3OCc3ccccc3/C(=C\OC)C(=O)OC)=NN2C(C)=O)cc1` (stereo not drawn), for which the mortality at 500 µg/mL was less than 60% in the assay on Tetranychus cinnabarinus and 100% with Mythimna separata [2]. The mortality result with Aphis medicaginis and in the assay with Nilaparvata lugens was “inactive” throughout. For the same compound, the inhibition entry in the assay with Rhizoctonia solani and in the assay on Botrytis cinerea was “inactive” throughout. The inhibition in vivo at 200 µg/mL in the assay on Podosphaera fuliginea [5] is less than 60%; in assay [6], 100%.
Regarding `CO/C=C(/C(=O)OC)c1ccccc1COc1cccc(C2=NN(C(C)=O)C(c3ccc(C)cc3)C2)c1` (stereo not drawn), the mortality at 500 µg/mL in the assay on Tetranychus cinnabarinus is less than 60%; in the assay on Mythimna separata [2], no less than 90%. Further, the inhibition result with Rhizoctonia solani and in the assay on Botrytis cinerea was “inactive” in each case. Also, the inhibition in vivo at 200 µg/mL with Podosphaera fuliginea [5] is less than 60%; in assay [6] it was 100%.
`CO/C=C(/C(=O)OC)c1ccccc1COc1cccc(C2=NN(C(C)=O)C(c3ccc(C(C)(C)C)cc3)C2)c1` (stereo not drawn): the mortality at 500 µg/mL is no less than 90% in the assay with Tetranychus cinnabarinus and 100% in the assay on Mythimna separata [2]. Further, the mortality entry with Aphis medicaginis and with Nilaparvata lugens was “inactive” throughout. For the same compound, the inhibition result with Rhizoctonia solani and in the assay on Botrytis cinerea was “inactive” in each case. Further, the figures for the inhibition in vivo at 200 µg/mL (with Podosphaera fuliginea [5]; in assay [6]) were less than 60% and no less than 80%, respectively.
As to `CO/C=C(/C(=O)OC)c1ccccc1COc1cccc(C2=NN(C(C)=O)C(c3ccc(Cl)cc3)C2)c1` (stereo not drawn), the mortality at 500 µg/mL in the assay on Tetranychus cinnabarinus is less than 60%; with Mythimna separata [2] it was 100%. In addition, the mortality entry with Aphis medicaginis and with Nilaparvata lugens was “inactive” throughout. The inhibition entry in the assay with Rhizoctonia solani and in the assay with Botrytis cinerea was “inactive” each time. Further, the values for the inhibition in vivo at 200 µg/mL (in the assay on Podosphaera fuliginea [5]; in assay [6]) were less than 60% and no less than 60%, respectively.
For the compound `CO/N=C(/C(=O)OC)c1ccccc1COc1ccccc1C` [KRESOXIM-METHYL], the figures for the IC50 (with Podosphaera fuliginea [3]; in [4]) were 1.6 µg/mL (≈ 5.11 µM) and 24.1 µg/mL (≈ 76.9 µM), respectively. Besides, the inhibition in vivo at 200 µg/mL in the assay with Podosphaera fuliginea [5] was 100%; in [6], no less than 90%.
As for `CO/C=C(/C(=O)OC)c1ccccc1COc1ccc(C2=NN(C(C)=O)C(c3ccc(Br)cc3)C2)cc1` (stereo not drawn), the inhibition entry in the assay on Rhizoctonia solani and with Botrytis cinerea was “inactive” in each case. Also, the inhibition in vivo at 200 µg/mL (in the assay with Podosphaera fuliginea [5]; in assay [6]) was less than 60% each time.
For `CO/C=C(/C(=O)OC)c1ccccc1COc1ccc(C2=NN(C(C)=O)C(c3ccc(Cl)cc3Cl)C2)cc1` (stereo not drawn), the inhibition entry in the assay on Rhizoctonia solani and in the assay with Botrytis cinerea was “inactive” throughout. Besides, the inhibition in vivo at 200 µg/mL (with Podosphaera fuliginea [5]; in assay [6]) was less than 60% each time.
In the case of `CO/C=C(/C(=O)OC)c1ccccc1COc1ccc(C2=NN(C(C)=O)C(c3cccc(OC)c3)C2)cc1` (stereo not drawn), the inhibition result in the assay with Rhizoctonia solani and in the assay on Botrytis cinerea was “inactive” throughout. Also, the inhibition in vivo at 200 µg/mL in the assay with Podosphaera fuliginea [5] was less than 60%; in assay [6] it was no less than 70%.
As to `CO/C=C(/C(=O)OC)c1ccccc1COc1ccc(C2=NN(C(C)=O)C(c3ccc(C(C)(C)C)cc3)C2)cc1` (stereo not drawn), the inhibition entry with Rhizoctonia solani and with Botrytis cinerea was “inactive” in each case. The inhibition in vivo at 200 µg/mL (with Podosphaera fuliginea [5]; in assay [6]) was less than 60% throughout.

These data come from ChEMBL document CHEMBL3046363, “Synthesis, fungicidal, and insecticidal activities of beta-Methoxyacrylate-containing N-acetyl pyrazoline derivatives” (J Agric Food Chem, 2008).
